Legend:
EGFR (T790M/L858R) = target: T1, EGFR (T790M/L858R) (Homo sapiens, UniProt P00533, L858R/T790M); assay: EGFR L858R/T790M enzyme inhibition assay (HTRF); type: biochemical; conditions: 5 μM ATP, 60 min, read-out: EGFR_L858R T790M_IC50_nM
T1 construct: GST; purchased Proqinase
Procedure, shortened: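 HTRF kinase assay with 2.5 nM GST-EGFR T790M/L858R, 0.5 μM biotinylated gastrin peptide and 5 μM ATP in HEPES pH 7.4 with Mg/Mn, 60 min at room temperature; compounds from 10 μM top. Phosphotyrosine detected by Eu anti-pTyr/SA-APC; IC50 from % inhibition.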

[1] = tested on: H1975 cells (L858R_T790M mutant); assay: H1975 proliferation assay; type: cell-based; conditions: Homo sapiens, NCI-H1975; read-out: Proliferation_Assay H1975 cells-EC50_nM L858R_T790M_mutant
A431 cells = assay: Cellular proliferation (Alamar Blue) assay, A431; type: cell-based; conditions: Homo sapiens, A-431; A431 cells, 72 hr, Alamar Blue; read-out: A431 IC50
Procedure, shortened: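 Seventy-two-hour growth assay with 3-fold compound titration (final 10–0.0005 μM) and Alamar Blue fluorescence end point, ex 540/em 590 nm.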

[2] = target: EGFR (A767_dupASV) expressing Ba/F3 stable cell line (Homo sapiens, UniProt P00533, DUP767-769, cells depend on it); assay: Cellular proliferation (Alamar Blue) assay, EGFR A767_dupASV Ba/F3; type: cell-based; conditions: EGFR A767_dupASV Ba/F3, 72 hr, read-out: A767 IC50
Procedure, shortened: (§1)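 Viability is measured by Alamar Blue conversion over 3 h, read as fluorescence at 540/590 nm. Cells are treated for 72 h with compound spanning 10–0.0005 μM final in 3-fold dilutions, after overnight attachment; Ba/F3 cells go in at 15,000 per well in RPMI with 10% FBS.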

[3] = target: EGFR(D770_N771insSVD) expressing Ba/F3 stable cell line (Homo sapiens, UniProt P00533, DUP768-770, cells depend on it); assay: Cellular proliferation (Alamar Blue) assay, EGFR D770_N771insSVD Ba/F3; type: cell-based; conditions: EGFR D770_N771insSVD Ba/F3, 72 hr, read-out: D770 IC50
Procedure, shortened: as §1

[4] = target: HER2 (A775_G776insYVMA) expressing Ba/F3 stable cell line (Homo sapiens, UniProt P04626, DUP772-775, cells depend on it); assay: Cellular proliferation (Alamar Blue) assay, HER2 YVMA Ba/F3; type: cell-based; conditions: HER2 A775_G776insYVMA Ba/F3, 72 hr, read-out: YVMA IC50
Procedure, shortened: as §1

T1 sequence (P00533 25-1210 T790M/L858R): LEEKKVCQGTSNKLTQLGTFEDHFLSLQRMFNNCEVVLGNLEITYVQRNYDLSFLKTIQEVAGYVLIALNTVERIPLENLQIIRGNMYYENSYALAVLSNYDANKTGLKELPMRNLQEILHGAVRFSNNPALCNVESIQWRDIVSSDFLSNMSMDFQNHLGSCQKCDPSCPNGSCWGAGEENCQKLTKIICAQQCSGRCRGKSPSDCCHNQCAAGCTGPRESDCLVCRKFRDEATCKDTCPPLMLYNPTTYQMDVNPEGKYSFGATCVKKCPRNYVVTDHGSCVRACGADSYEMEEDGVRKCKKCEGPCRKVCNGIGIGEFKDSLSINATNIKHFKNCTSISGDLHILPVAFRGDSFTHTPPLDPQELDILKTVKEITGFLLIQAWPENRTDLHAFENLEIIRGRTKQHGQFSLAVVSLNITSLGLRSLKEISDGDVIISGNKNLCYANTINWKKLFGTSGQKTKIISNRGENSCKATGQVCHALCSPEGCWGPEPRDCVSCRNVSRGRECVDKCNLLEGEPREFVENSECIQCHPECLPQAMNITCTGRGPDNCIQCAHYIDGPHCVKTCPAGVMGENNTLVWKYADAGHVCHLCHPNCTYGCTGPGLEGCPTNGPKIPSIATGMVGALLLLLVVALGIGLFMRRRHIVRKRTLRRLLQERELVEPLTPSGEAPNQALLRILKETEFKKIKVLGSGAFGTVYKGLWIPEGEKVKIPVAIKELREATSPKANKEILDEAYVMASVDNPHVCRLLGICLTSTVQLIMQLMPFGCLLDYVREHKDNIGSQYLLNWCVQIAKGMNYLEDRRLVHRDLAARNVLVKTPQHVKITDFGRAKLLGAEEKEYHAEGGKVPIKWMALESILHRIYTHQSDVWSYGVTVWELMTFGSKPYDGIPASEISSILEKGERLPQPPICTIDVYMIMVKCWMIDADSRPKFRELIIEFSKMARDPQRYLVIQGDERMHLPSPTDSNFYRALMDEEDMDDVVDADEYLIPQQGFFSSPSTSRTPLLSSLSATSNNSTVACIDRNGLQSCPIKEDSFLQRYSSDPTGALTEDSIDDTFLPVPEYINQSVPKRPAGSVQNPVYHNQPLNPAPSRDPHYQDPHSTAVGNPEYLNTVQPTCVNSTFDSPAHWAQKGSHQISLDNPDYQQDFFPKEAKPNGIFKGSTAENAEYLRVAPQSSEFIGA
EGFR(D770_N771insSVD) expressing Ba/F3 stable cell line, sequence (P00533 with tags, fused parts or gaps DUP768-770): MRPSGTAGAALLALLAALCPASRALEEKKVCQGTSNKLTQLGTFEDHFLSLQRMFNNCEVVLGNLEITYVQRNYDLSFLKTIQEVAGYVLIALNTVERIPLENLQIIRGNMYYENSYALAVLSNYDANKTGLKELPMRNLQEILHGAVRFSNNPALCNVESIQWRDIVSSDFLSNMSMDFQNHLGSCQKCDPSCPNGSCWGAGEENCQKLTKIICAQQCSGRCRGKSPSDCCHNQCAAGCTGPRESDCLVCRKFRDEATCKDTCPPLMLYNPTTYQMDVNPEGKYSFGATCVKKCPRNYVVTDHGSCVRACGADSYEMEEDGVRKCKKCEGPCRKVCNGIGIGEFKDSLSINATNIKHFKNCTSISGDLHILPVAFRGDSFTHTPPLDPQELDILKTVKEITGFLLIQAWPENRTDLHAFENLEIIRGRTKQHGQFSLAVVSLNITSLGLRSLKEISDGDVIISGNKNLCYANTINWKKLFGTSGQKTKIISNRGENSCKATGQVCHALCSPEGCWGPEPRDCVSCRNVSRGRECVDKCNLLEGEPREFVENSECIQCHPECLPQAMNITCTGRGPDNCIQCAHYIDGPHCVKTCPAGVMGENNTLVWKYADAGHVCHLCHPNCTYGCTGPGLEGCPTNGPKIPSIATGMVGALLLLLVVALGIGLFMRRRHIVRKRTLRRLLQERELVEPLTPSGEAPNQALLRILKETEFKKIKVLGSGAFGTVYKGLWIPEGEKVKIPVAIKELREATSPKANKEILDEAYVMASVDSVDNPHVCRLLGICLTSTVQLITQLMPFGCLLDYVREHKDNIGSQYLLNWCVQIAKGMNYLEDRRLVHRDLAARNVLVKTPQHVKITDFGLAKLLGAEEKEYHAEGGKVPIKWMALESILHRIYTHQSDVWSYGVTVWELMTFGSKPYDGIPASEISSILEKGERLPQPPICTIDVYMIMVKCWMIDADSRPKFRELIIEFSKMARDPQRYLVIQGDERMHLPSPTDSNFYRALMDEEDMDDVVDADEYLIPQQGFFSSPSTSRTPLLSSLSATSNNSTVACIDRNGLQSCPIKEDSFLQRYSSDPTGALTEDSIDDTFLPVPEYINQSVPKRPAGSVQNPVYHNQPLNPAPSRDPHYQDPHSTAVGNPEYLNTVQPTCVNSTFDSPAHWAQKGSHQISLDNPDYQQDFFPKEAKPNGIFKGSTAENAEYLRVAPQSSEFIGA
HER2 (A775_G776insYVMA) expressing Ba/F3 stable cell line, sequence (P04626 with tags, fused parts or gaps DUP772-775): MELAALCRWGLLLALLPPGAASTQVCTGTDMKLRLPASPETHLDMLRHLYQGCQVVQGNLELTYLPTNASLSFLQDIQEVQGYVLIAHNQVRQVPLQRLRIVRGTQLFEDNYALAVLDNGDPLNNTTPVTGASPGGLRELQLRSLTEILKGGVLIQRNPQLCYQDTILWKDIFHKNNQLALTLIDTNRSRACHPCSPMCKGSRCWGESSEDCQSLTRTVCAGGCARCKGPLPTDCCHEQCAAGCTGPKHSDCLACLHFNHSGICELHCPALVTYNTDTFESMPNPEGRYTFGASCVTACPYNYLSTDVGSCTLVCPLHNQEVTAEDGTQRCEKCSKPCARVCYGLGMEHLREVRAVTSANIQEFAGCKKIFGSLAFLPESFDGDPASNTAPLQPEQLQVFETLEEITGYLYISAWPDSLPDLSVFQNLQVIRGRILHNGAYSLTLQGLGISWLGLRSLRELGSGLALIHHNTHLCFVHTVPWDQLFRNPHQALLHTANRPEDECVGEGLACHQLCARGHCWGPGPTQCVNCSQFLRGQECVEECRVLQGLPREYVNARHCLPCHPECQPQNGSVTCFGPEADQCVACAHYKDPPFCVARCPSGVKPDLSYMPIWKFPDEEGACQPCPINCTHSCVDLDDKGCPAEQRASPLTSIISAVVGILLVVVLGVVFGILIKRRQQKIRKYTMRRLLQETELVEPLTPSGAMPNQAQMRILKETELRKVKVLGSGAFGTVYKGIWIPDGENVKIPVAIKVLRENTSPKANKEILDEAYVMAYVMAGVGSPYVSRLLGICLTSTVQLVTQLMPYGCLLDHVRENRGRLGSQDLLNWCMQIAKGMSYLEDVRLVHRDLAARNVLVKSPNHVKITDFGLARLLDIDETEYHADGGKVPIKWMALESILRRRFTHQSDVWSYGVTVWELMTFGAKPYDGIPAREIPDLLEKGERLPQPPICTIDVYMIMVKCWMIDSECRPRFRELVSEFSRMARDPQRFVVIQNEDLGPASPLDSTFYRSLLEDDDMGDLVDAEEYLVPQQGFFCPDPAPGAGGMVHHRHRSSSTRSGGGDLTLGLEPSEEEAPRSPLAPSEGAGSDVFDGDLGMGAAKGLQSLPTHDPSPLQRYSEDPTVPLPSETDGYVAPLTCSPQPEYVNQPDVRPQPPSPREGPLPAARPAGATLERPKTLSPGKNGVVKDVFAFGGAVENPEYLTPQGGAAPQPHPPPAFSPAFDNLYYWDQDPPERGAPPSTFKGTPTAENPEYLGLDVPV
EGFR (A767_dupASV) expressing Ba/F3 stable cell line, sequence (P00533 with tags, fused parts or gaps DUP767-769): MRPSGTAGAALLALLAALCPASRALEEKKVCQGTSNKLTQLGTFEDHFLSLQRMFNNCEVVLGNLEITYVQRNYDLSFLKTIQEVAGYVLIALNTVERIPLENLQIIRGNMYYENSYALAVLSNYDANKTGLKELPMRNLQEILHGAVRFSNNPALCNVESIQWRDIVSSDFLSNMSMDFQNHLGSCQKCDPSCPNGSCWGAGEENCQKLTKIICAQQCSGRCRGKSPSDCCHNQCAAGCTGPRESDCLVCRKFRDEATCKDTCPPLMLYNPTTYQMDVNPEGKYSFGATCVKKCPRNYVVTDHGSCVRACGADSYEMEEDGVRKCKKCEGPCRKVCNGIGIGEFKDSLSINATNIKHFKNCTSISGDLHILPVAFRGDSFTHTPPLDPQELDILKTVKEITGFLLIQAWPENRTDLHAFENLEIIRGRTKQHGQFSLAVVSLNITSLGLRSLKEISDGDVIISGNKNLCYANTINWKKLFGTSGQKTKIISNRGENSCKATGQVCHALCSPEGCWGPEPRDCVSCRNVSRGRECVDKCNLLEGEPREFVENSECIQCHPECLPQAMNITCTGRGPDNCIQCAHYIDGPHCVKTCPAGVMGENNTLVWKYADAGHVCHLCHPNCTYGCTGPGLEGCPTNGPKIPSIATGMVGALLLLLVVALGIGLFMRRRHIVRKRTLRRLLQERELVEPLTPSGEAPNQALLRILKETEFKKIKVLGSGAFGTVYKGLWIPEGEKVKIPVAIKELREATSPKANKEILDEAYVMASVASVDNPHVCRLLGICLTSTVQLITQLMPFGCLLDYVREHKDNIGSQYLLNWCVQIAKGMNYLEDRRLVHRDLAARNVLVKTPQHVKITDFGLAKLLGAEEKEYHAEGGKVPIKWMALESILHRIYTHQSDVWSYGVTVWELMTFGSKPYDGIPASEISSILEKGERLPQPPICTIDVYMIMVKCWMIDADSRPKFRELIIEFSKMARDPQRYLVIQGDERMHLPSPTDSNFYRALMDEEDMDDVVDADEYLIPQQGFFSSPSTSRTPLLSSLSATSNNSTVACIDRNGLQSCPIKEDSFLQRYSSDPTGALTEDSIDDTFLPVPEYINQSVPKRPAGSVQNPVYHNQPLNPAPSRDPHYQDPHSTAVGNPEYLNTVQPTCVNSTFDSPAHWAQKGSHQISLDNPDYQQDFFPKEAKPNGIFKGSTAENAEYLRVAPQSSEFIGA

Row | SMILES | IC50 (EGFR (T790M/L858R)) | EC50 [1] | IC50 (A431 cells) | GI50 [2] | GI50 [3] | GI50 [4]
1 | C=CC(=O)Nc1cccc(N2C(=O)N(Cc3ccccc3)Cc3cnc(Nc4cn(CC(F)(F)F)nc4C)nc32)c1 [Compound 6, N-(3-(3-benzyl-7-((3-methyl-1-(2,2,2-trifluoroethyl)-1H-pyrazol-4-yl)amino)-2-oxo-3,4-dihydropyrimido[4,5-d]pyrimidin-1(2H)-yl)phenyl)acrylamide] | 0.001 µM | 0.0081 µM | 1.89 µM | 0.009 µM | 0.009 µM | 0.011 µM
2 | CC(C)n1cc(Nc2ncc3c(n2)N(c2cccc(NC(=O)/C=C/CN(C)C)c2)C(=O)N(Cc2ccccc2)C3)cn1 [Compound 9, (E)-N-(3-(3-benzyl-7-((1-isopropyl-1H-pyrazol-4-yl)amino)-2-oxo-3,4-dihydropyrimido[4,5-d]pyrimidin-1(2H)-yl)phenyl)-4-(dimethylamino)but-2-enamide] | 0.004 µM | 0.0176 µM | 6.87 µM | 0.103 µM | 0.114 µM | 0.038 µM
3 | C=CC(=O)Nc1cccc(N2C(=O)N(Cc3ccccc3)Cc3cnc(Nc4cnn(CCOC)c4)nc32)c1 [Compound 15, N-(3-(3-benzyl-7-((1-(2-methoxyethyl)-1H-pyrazol-4-yl)amino)-2-oxo-3,4-dihydropyrimido[4,5-d]pyrimidin-1(2H)-yl)phenyl)acrylamide] | 0.002 µM | 0.0018 µM | 0.077 µM | 0.01 µM | 0.006 µM | 0.023 µM
4 | C=CC(=O)NC1CCCC(N2C(=O)N(Cc3ccccc3)Cc3cnc(Nc4cnn(C)c4)nc32)C1 (stereo not drawn) [Compound 24, N-(3-(3-benzyl-7-((1-methyl-1H-pyrazol-4-yl)amino)-2-oxo-3,4-dihydropyrimido[4,5-d]pyrimidin-1(2H)-yl)cyclohexyl)acrylamide] | 0.053 µM | 0.071 µM | 8.34 µM | 0.356 µM | 0.34 µM | 
5 | C=CC(=O)Nc1cccc(N2C(=O)N(Cc3ccccc3)Cc3cnc(Nc4nc(C)cs4)nc32)c1 [Compound 25, N-(3-(3-benzyl-7-((4-methylthiazol-2-yl)amino)-2-oxo-3,4-dihydropyrimido[4,5-d]pyrimidin-1(2H)-yl)phenyl)acrylamide] | 0.003 µM | 0.029 µM | 0.083 µM | 0.32 µM | 0.069 µM | 
6 | CN(C)C/C=C/C(=O)Nc1cccc(N2C(=O)N(Cc3ccccc3)Cc3cnc(Nc4cn(C)nn4)nc32)c1 [Compound 26, (E)-N-(3-(3-benzyl-7-((1-methyl-1H-1,2,3-triazol-4-yl)amino)-2-oxo-3,4-dihydropyrimido[4,5-d]pyrimidin-1(2H)-yl)phenyl)-4-(dimethylamino)but-2-enamide] | 0.005 µM | 0.222 µM | 3.08 µM | 3.33 µM | 3.69 µM | 
7 | Cc1cnc(Nc2ncc3c(n2)N(C2CCCC(NC(=O)/C=C/CN(C)C)C2)C(=O)N(Cc2ccccc2)C3)s1 (stereo not drawn) [Compound 27, (E)-N-(3-(3-benzyl-7-((5-methylthiazol-2-yl)amino)-2-oxo-3,4-dihydropyrimido[4,5-d]pyrimidin-1(2H)-yl)cyclohexyl)-4-(dimethylamino)but-2-enamide] | 0.303 µM | ≥ 10 µM | 4.4 µM | 9.19 µM | ≥ 10 µM | 
8 | Cc1csc(Nc2ncc3c(n2)N(C2CCCC(NC(=O)/C=C/CN(C)C)C2)C(=O)N(Cc2ccccc2)C3)n1 (stereo not drawn) [Compound 29, (E)-N-(3-(3-benzyl-7-((4-methylthiazol-2-yl)amino)-2-oxo-3,4-dihydropyrimido[4,5-d]pyrimidin-1(2H)-yl)cyclohexyl)-4-(dimethylamino)but-2-enamide] | 0.66 µM | 1.08 µM | 4.09 µM | 2.6 µM | 0.431 µM | 
9 | C=CC(=O)NC1CCCC(N2C(=O)N(Cc3ccccc3)Cc3cnc(Nc4ncc(C)s4)nc32)C1 (stereo not drawn) [Compound 30, N-(3-(3-benzyl-7-((5-methylthiazol-2-yl)amino)-2-oxo-3,4-dihydropyrimido[4,5-d]pyrimidin-1(2H)-yl)cyclohexyl)acrylamide] | 0.164 µM | 0.413 µM | 0.92 µM | 2.81 µM | 2.57 µM | 
10 | CN(C)C/C=C/C(=O)NC1CCCC(N2C(=O)N(Cc3ccccc3)Cc3cnc(Nc4cnn(C)c4)nc32)C1 (stereo not drawn) [Compound 31, (E)-N-(3-(3-benzyl-7-((1-methyl-1H-pyrazol-4-yl)amino)-2-oxo-3,4-dihydropyrimido[4,5-d]pyrimidin-1(2H)-yl)cyclohexyl)-4-(dimethylamino)but-2-enamide] | 0.281 µM | 0.299 µM | 1.97 µM | 3.32 µM | 3.48 µM | 
11 | Cc1cc(Nc2ncc3c(n2)N(C2CCCC(NC(=O)/C=C/CN(C)C)C2)C(=O)N(Cc2ccccc2)C3)sn1 (stereo not drawn) [Compound 32, (E)-N-(3-(3-benzyl-7-((3-methylisothiazol-5-yl)amino)-2-oxo-3,4-dihydropyrimido[4,5-d]pyrimidin-1(2H)-yl)cyclohexyl)-4-(dimethylamino)but-2-enamide] | 0.082 µM | 0.176 µM | 1.37 µM | 2.91 µM | 2.88 µM | 
12 | C=CC(=O)NC1CCCC(N2C(=O)N(Cc3ccccc3)Cc3cnc(Nc4cn(C)nc4Cl)nc32)C1 (stereo not drawn) [Compound 40, N-(3-(3-benzyl-7-((3-chloro-1-methyl-1H-pyrazol-4-yl)amino)-2-oxo-3,4-dihydropyrimido[4,5-d]pyrimidin-1(2H)-yl)cyclohexyl)acrylamide] | 0.098 µM | 0.323 µM | ≥ 10 µM | 1.7 µM | 1.87 µM | 
13 | CN(C)C/C=C/C(=O)Nc1cccc(N2C(=O)N(Cc3ccccc3)Cc3cnc(Nc4ccc5c(cnn5C)c4)nc32)c1 [Compound 43, (E)-N-(3-(3-benzyl-7-((1-methyl-1H-indazol-5-yl)amino)-2-oxo-3,4-dihydropyrimido[4,5-d]pyrimidin-1(2H)-yl)phenyl)-4-(dimethylamino)but-2-enamide] | 0.0038 µM | 0.0063 µM | 0.632 µM | 0.103 µM | 0.108 µM | 
14 | CN(C)C/C=C/C(=O)Nc1cccc(N2C(=O)N(Cc3ccccc3)Cc3cnc(Nc4ccc5c(c4)cc(C#N)n5C)nc32)c1 [Compound 44, (E)-N-(3-(3-benzyl-7-((2-cyano-1-methyl-1H-indol-5-yl)amino)-2-oxo-3,4-dihydropyrimido[4,5-d]pyrimidin-1(2H)-yl)phenyl)-4-(dimethylamino)but-2-enamide] | 0.009 µM | 0.0376 µM | 0.056 µM | 0.123 µM | 0.106 µM | 
15 | CN(C)C/C=C/C(=O)Nc1cccc(N2C(=O)N(Cc3ccccc3)Cc3cnc(Nc4ccc5cnn(C)c5c4)nc32)c1 [Compound 45, (E)-N-(3-(3-benzyl-7-((1-methyl-1H-indazol-6-yl)amino)-2-oxo-3,4-dihydropyrimido[4,5-d]pyrimidin-1(2H)-yl)phenyl)-4-(dimethylamino)but-2-enamide] | 0.011 µM | 0.0467 µM | 1.13 µM | 0.352 µM | 0.35 µM | 
16 | C=CS(=O)(=O)Nc1cccc(N2C(=O)N(Cc3ccccc3)Cc3cnc(Nc4cnn(C)c4)nc32)c1 [Compound 47, N-(3-(3-benzyl-7-((1-methyl-1H-pyrazol-4-yl)amino)-2-oxo-3,4-dihydropyrimido[4,5-d]pyrimidin-1(2H)-yl)phenyl)ethenesulfonamide] | 0.0009 µM | 0.819 µM | ≥ 10 µM | 2.26 µM | ≥ 10 µM | 
17 | Cc1csc(Nc2ncc3c(n2)N(c2cccc(NC(=O)/C=C/CN(C)C)c2)C(=O)N(Cc2ccccc2)C3)n1 [Compound 48, (E)-N-(3-(3-benzyl-7-((4-methylthiazol-2-yl)amino)-2-oxo-3,4-dihydropyrimido[4,5-d]pyrimidin-1(2H)-yl)phenyl)-4-(dimethylamino)but-2-enamide] | 0.0035 µM | 0.133 µM | 0.148 µM | 0.456 µM | 0.361 µM | 
18 | Cn1cc(Nc2ncc3c(n2)N(c2cccc(NC(=O)/C=C/Cl)c2)C(=O)N(Cc2ccccc2)C3)cn1 [Compound 50, (E)-N-(3-(3-benzyl-7-((1-methyl-1H-pyrazol-4-yl)amino)-2-oxo-3,4-dihydropyrimido[4,5-d]pyrimidin-1(2H)-yl)phenyl)-3-chloroacrylamide] | 0.0004 µM | 4.2 µM | 5.38 µM | 1.35 µM | 8.72 µM | 

Reference: patent US20230027026A1, “FUSED PYRIMIDINE COMPOUNDS, COMPOSITIONS AND MEDICINAL APPLICATIONS THEREOF” (JUBILANT BIOSYS LIMITED, priority 2019, published 2023)
